Converted amounts (≈) assume the structure as drawn. Where two headings read alike, the source gives them in different places.
Assays:
Escherichia coli K-12 R5 = test: microbe, parasite or virus in culture; type: cell-based; conditions: K12R5; Escherichia coli K-12 R5; resistance mechanism AAC(6'); Mueller-Hinton agar, 37° C
[1] = system: Escherichia coli JR66/W677; test: microbe, parasite or virus in culture; type: cell-based; conditions: resistance mechanism APH(3')-II, ANT(2"), Mueller-Hinton agar, 37° C
[2] = system: Klebsiella pneumoniae 22#3038; test: MIC, standard serial dilution method; type: cell-based; conditions: resistance mechanism APH(3')-II, ANT(2"), Mueller-Hinton agar, 37° C
Serratia marcescens = test: MIC, standard serial dilution method; type: cell-based; conditions: Mueller-Hinton agar, 37° C
[3] = system: Escherichia coli K-12 LA 290 R55; test: microbe, parasite or virus in culture; type: cell-based; conditions: K12LA290R55
Mycobacterium 607 = test: MIC, standard serial dilution method; type: cell-based; conditions: Mueller-Hinton agar, 37° C
[4] = system: Pseudomonas aeruginosa GN 315; test: MIC, standard serial dilution method; type: cell-based; conditions: GN315; Pseudomonas aeruginosa GN 315; resistance mechanism AAC(6'); Mueller-Hinton agar, 37° C; read-out: MIC
[5] = system: Staphylococcus aureus 209P; test: MIC, standard serial dilution method; type: cell-based; conditions: Mueller-Hinton agar, 37° C
Providencia sp. Pv 16 = test: MIC, standard serial dilution method; type: cell-based; conditions: SP.PV16, resistance mechanism AAC(2'), Mueller-Hinton agar, 37° C
Escherichia coli JR225 = test: microbe, parasite or virus in culture; type: cell-based; conditions: resistance mechanism AAC(3), Mueller-Hinton agar, 37° C
[6] = system: Escherichia coli K-12 ML 1629; test: microbe, parasite or virus in culture; type: cell-based; conditions: K12ML1629
Proteus rettgeri GN 311 = test: MIC, standard serial dilution method; type: cell-based; conditions: Providencia rettgeri, GN311; Proteus rettgeri GN 311; Mueller-Hinton agar, 37° C; read-out: MIC
in vivo = conditions: mouse, iv, pH 7
Source text: Further, in order to estimate acute toxicity of the compound of the general formula (I) according to this invention, some examples of the compounds of this invention were independently dissolved in water to prepare aqueous solutions (as adjusted to pH 7 by addition of hydrochloric acid). […] The tested compounds of this invention are expressed by the same abbreviations as in Table 1. […] The comparative compounds as tested are also expressed by the same abbreviations as in Table 1.

[7] = system: Corynebacterium bovis 1810; test: MIC, standard serial dilution method; type: cell-based; conditions: Mueller-Hinton agar, 37° C
Escherichia coli K-12 = test: MIC, standard serial dilution method; type: cell-based; conditions: K12; Escherichia coli K-12; Mueller-Hinton agar, 37° C; read-out: MIC
[8] = system: Staphylococcus aureus Ap01; test: MIC, standard serial dilution method; type: cell-based; conditions: resistance mechanism ANT(4'), Mueller-Hinton agar, 37° C
Bacillus subtilis PCI219 = test: MIC, standard serial dilution method; type: cell-based; conditions: Mueller-Hinton agar, 37° C
[9] = system: Pseudomonas aeruginosa A3; test: MIC, standard serial dilution method; type: cell-based; conditions: Mueller-Hinton agar, 37° C
[10] = Escherichia coli K-12 LA 290 R55, resistance mechanism ANT(2"), Mueller-Hinton agar, 37° C
[11] = Escherichia coli K-12 ML 1629, resistance mechanism APH(3')-I, Mueller-Hinton agar, 37° C, read-out: MIC

Compound	MIC (Escherichia coli K-12 R5) [µg/mL]	MIC [1] [µg/mL]	MIC [2] [µg/mL]	MIC (Serratia marcescens) [µg/mL]	MIC [3, 10] [µg/mL]	MIC (Mycobacterium 607) [µg/mL]	MIC [4] [µg/mL]	MIC [5] [µg/mL]	MIC (Providencia sp. Pv 16) [µg/mL]	MIC (Escherichia coli JR225) [µg/mL]	MIC [6, 11] [µg/mL]	MIC (Proteus rettgeri GN 311) [µg/mL]	LD50 (in vivo) [mg/kg]	MIC [7] [µg/mL]	MIC (Escherichia coli K-12) [µg/mL]	MIC [8] [µg/mL]	MIC (Bacillus subtilis PCI219) [µg/mL]	MIC [9] [µg/mL]	MIC ([6]; Escherichia coli) [µg/mL]	MIC ([3]; Escherichia coli) [µg/mL]
CN[C@@H]1[C@@H](O)[C@@H](O[C@H]2[C@H](N)C[C@H](N)[C@@H](O[C@H]3O[C@H](CN)CC[C@H]3N)C2(F)F)OC[C@]1(C)O [5FF-Genta-C1a, 5-deoxy-5,5-difluorogentamicin C1a]	12.5 (≈ 26.6 µM)	1.56 (≈ 3.32 µM)	1.56 (≈ 3.32 µM)	6.25 (≈ 13.3 µM)	3.12 (≈ 6.64 µM)	0.78 (≈ 1.66 µM)	100 (≈ 213 µM)	0.78 (≈ 1.66 µM)	12.5 (≈ 26.6 µM)	3.12 (≈ 6.64 µM)	0.39 (≈ 0.831 µM)	0.39 (≈ 0.831 µM)	~240	0.78 (≈ 1.66 µM)	< 0.2	3.12 (≈ 6.64 µM)	0.39 (≈ 0.831 µM)	0.78 (≈ 1.66 µM)		
CCN[C@@H]1C[C@H](N)[C@@H](O[C@H]2OC(CN)=CC[C@H]2N)C(F)(F)[C@H]1O[C@H]1OC[C@](C)(O)[C@H](NC)[C@H]1O [5FF-Netilmicin, 5-deoxy-5,5-difluoronetilmicin]	50 (≈ 101 µM)	0.78 (≈ 1.57 µM)	1.56 (≈ 3.15 µM)	6.25 (≈ 12.6 µM)	0.39 (≈ 0.787 µM)	1.56 (≈ 3.15 µM)	> 100	3.12 (≈ 6.3 µM)	12.5 (≈ 25.2 µM)	1.56 (≈ 3.15 µM)		1.56 (≈ 3.15 µM)	47	1.56 (≈ 3.15 µM)	< 0.2	12.5 (≈ 25.2 µM)	0.39 (≈ 0.787 µM)	1.56 (≈ 3.15 µM)	0.78 (≈ 1.57 µM)	
NC[C@@H]1CC[C@@H](N)[C@@H](O[C@@H]2[C@@H](N)C[C@@H](N)[C@H](O[C@H]3O[C@H](CO)[C@@H](O)[C@H](N)[C@H]3O)C2(F)F)O1 [Compound 5FF-DKB, 5,3',4'-trideoxy-5,5-difluorokanamycin B]	100 (≈ 212 µM)	1.56 (≈ 3.31 µM)	1.56 (≈ 3.31 µM)	12.5 (≈ 26.5 µM)	1.56 (≈ 3.31 µM)	1.56 (≈ 3.31 µM)	> 100	0.78 (≈ 1.65 µM)	12.5 (≈ 26.5 µM)	3.12 (≈ 6.62 µM)		0.39 (≈ 0.827 µM)	250	1.56 (≈ 3.31 µM)	0.39 (≈ 0.827 µM)	3.12 (≈ 6.62 µM)	0.39 (≈ 0.827 µM)	0.39 (≈ 0.827 µM)	0.78 (≈ 1.65 µM)	
NCC[C@H](O)C(=O)N[C@@H]1C[C@H](N)[C@@H](O[C@H]2O[C@H](CN)CC[C@H]2N)C(F)(F)[C@H]1O[C@H]1O[C@H](CO)[C@@H](O)[C@H](N)[C@H]1O [Compound 5FF-DKB-AHB, 1-N-[(S)-4-amino-2-hydroxybutyryl]-5,3',4'-trideoxy-5,5-difluorokanamycin B]	3.12 (≈ 5.45 µM)	0.39 (≈ 0.681 µM)	0.78 (≈ 1.36 µM)	1.56 (≈ 2.72 µM)	< 0.2	0.78 (≈ 1.36 µM)	12.5 (≈ 21.8 µM)	0.39 (≈ 0.681 µM)	0.78 (≈ 1.36 µM)	< 0.2	0.39 (≈ 0.681 µM)	0.39 (≈ 0.681 µM)	~200	< 0.2	< 0.2	3.12 (≈ 5.45 µM)	0.39 (≈ 0.681 µM)	0.78 (≈ 1.36 µM)		
CN[C@@H]1[C@@H](O)[C@@H](O[C@H]2[C@H](N)C[C@H](N)[C@@H](O[C@H]3O[C@H]([C@@H](C)NC)CC[C@H]3N)C2(F)F)OC[C@]1(C)O [Compound 5FF-Genta-C1, 5-deoxy-5,5-difluorogentamicin C1]	1.56 (≈ 3.14 µM)	0.78 (≈ 1.57 µM)	3.12 (≈ 6.27 µM)	1.56 (≈ 3.14 µM)		1.56 (≈ 3.14 µM)	25 (≈ 50.2 µM)	1.56 (≈ 3.14 µM)	25 (≈ 50.2 µM)	12.5 (≈ 25.1 µM)	1.56 (≈ 3.14 µM)	1.56 (≈ 3.14 µM)	~200	3.12 (≈ 6.27 µM)	1.56 (≈ 3.14 µM)	12.5 (≈ 25.1 µM)	1.56 (≈ 3.14 µM)	6.25 (≈ 12.6 µM)		0.78 (≈ 1.57 µM)

From patent US5527781A, “4-O-(aminoglycosyl)- or 4,6-di-O-(aminoglycosyl)-2,5-dideoxy-5,5-difluorostreptamine derivatives” (Zaidan Hojin Biseibutsu Kagaku Kenkyu Kai, priority 1990, dated 1996)
